What all share (format): physicochemical
Data set [1] in a line: Measurement of the approximate solubility (solvent added in steps to the solid). The note with it: ethyl acetate/n-heptane 1:2 v/v, 23° C. (B′: solid form transformation into solid form A). Here is the method:
To determine the approximate solubility at room temperature, the solvent was added in steps to the solid material. After every addition, the sample was well stirred. The addition of solvent was continued until complete dissolution or until 15 ml of solvent was added.

Data set [2] is described as follows: Dynamic vapor sorption (DVS). As to conditions: 25° C. Here is the method:
Dynamic vapor sorption quantification relates the mass of water absorbed and subsequently desorbed during the crystallization process. In order to define whether batch P1, P2 and P4 are hydrated polymorphs, DVS measurements were conducted (FIG. 9). A sample (13 to 14 mg) was placed on a Pt pan, and the sample was allowed to equilibrate at 25° C./50% r.h. before starting a pre-defined humidity program (1.0 hours 50%, from 50% r.h. to 95% r.h.: 5% r.h./hour, 10 hours at 95% r.h., from 95% r.h. to 0% r.h.: 5% r.h./hour, 10 hours at 0% r.h., from 0% r.h. to 50% r.h.: 5% r.h./hour, 1 hours at 50% r.h.

Data set [3] is described as follows: Suspension equilibration experiments. Here is the method: Suspension equilibration experiments were carried out with 81-128 mg of the compound. The suspensions were stirred with a magnetic stirrer. The samples obtained after filtration were air dried at ambient temperature for a short time only to prevent possible desolvation of labile hydrates or solvates.

Data set [4] is described as follows: Water solubility of solid forms A and B′ (suspension shaken, filtered, HPLC; residue by Raman). As to conditions: 22° C.; for Solid residue: Raman, rough estimate; for solubility: mean of two measurements (±standard deviation). The method, then:
During the following experiments: suspension equilibration, precipitation experiment, recrystallization, relative stability experiments and water solubility experiment, a filtration step was conducted. Centrifugal filter devices: Ultrafree-CL (0.22 la,m), Millipore; Centrifuge type or Eppendorf 5804R were used at a temperature of 22° C. and centrifugation program of 2 min 3000 rpm.
HPLC was used to analyse the purity of S-1. HP 1090M HPLC machine was used with the following conditions: • Column: Symmetry Shield RP18, 3.9×150 mm, 5 μm • Column temperature: 35° C. • Injection volume: 10 μL • Solvent: acetonitrile+water 1:1 v/v • Mobile phase A: 0.1% TFA-water • Mobile phase B: 0.1% TFA-acetonitrile • Flow rate: 1 mL/min. • Detection: UV at 271 nm • Run time: 21 min. • Retention time (S-1): 10.7 min.
Suspensions of the solid forms (25 or 50 mg in 3.5 or 7.0 ml bidistilled water) were shaken (800 rpm) and filtered after 0.5 h, 1.5 h, 4 h and 20 h. After filtration the solid residue was checked by Raman spectroscopy and the concentration in the clear solution was determined by HPLC.

Data set [5] in a line: Relative stability of polymorphic forms under dry conditions (heating, micronization). As to conditions: heating to 110° C. in the presence of D. Here is the method: (§1) Thermal analysis was carried out with a Perkin Elmer DSC7 with the following experimental conditions: 3 to 6 mg sample mass, closed gold sample pan, temperature range −50° C. to 120° C., heating rate 20 K/min. The samples were weighed in air or dry N2 atmosphere. Additional thermal analysis was conducted using a TA Instruments Q1000 DSC using hermetic aluminum pans under various conditions.
Thus forms A and B″ can be considered to be practically stable at ambient temperature. […] Micronization of the polymorph A particles under dry conditions also produced ˜25% conversion to B″.

Data set [6] in a line: Relative stability of polymorphic forms under humid conditions (storage, DSC). The note with it: 50° C./75% RH as well as ambient/75% RH, ambient/100% RH, 30° C./75% RH and 50° C./0% RH. Here is the method:
as §1
Polymorph A stays stable in its A form for at least 7 days under storage conditions of ambient temperature/75% RH (Relative Humidity), ambient temperature/100% RH, 30° C./75% RH and 50° C./0% RH.
In fact, polymorph D in the presence of moisture acts as the seed for the crystallization process and drives the transformation of polymorphs A and B′ into D, similar to its role in seeding the A to D crystallization in dry conditions. […] The amount of polymorph D initially added to the sample is very small that it isn't detectable by the DSC with heating rate of 10° C./min. […] The transformation process is speeded up in FIG. 17G (b) by storing the sample in water at 50° C. […] Further work has shown that the A and B′ convert to D in the presence of moisture at lower temperatures also albeit at slower rates.

A short description of data set [7]: Relative stability of toluene solvate in toluene / solubility in toluene. Here is the method:
Recrystallization of S-1 from a solvent/antisolvent system that uses toluene as the antisolvent produces the toluene solvate. Toluene solvate has a melting point near 100° C. with the enthalpy of melting 70±5 J/g.

Values joined by “and” are separate entries in the source; they are usually repeats but may differ in a detail not shown here. Equal entries are not always repeated. Marks after values point to notes of the source that are not given here.

As for `C[C@](O)(COc1ccc(C#N)cc1)C(=O)Nc1ccc(C#N)c(C(F)(F)F)c1` [Form B′, (S)-N-(4-cyano-3-(trifluoromethyl)phenyl)-3-(4-cyanophenoxy)-2-hydroxy-2-methylpropanamide], the solubility is recorded as more than 9 solid form mg/ml in data set [1]; 27.4 ± 0.9 mg/1000 ml in data set [4] (water, suspension equilibration time 0.5 h); 27.3 ± 0.8 mg/1000 ml in data set [4] (water, suspension equilibration time 1.5 h); 27.3±0.8 mg/1000 ml in data set [4] (water, suspension equilibration time 1.5 h, listed as B′); 25.6 ± 0.1 mg/1000 ml in data set [4] (water, suspension equilibration time 4.0 h); 26.7 ± 0.3 ^c) mg/1000 ml in data set [4] (water, suspension equilibration time 20 h). Also, the “maximum water content at 94% r.h.” value in data set [2] (listed as solid form B′) is “approx. 2.4%”. The Form produced entry in data set [3] (ethyl acetate + n-heptane 1:2 v/v 81/1.7 mg/ml, stirred 2 h/23° C.) is on record as “transformed into solid form A”; in data set [3] (ethyl acetate + n-pentane 1:2 v/v 101/1.0 mg/ml, stirred 22 h/23° C.), “transformed into solid form A”. The solubility in water in data set [4] (stated as embodiment) was 20 to 30 µg/mL and 23 to 27 µg/mL. The Solid residue entry in data set [4] (water, 0.5 h) is listed as “B′”; in data set [4] (water, 1.5 h), “B′”; in data set [4] (water, 4.0 h), “B′”; in data set [4] (water, 20 h), “B′”. Also, in data set [4] (water, 20 h suspension equilibration), the “pH of the solution” value is given as “d) pH of the solution: 8.7”.
For the molecule `C[C@](O)(COc1ccc(C#N)cc1)C(=O)Nc1ccc(C#N)c(C(F)(F)F)c1` [Form B″, (S)-N-(4-cyano-3-(trifluoromethyl)phenyl)-3-(4-cyanophenoxy)-2-hydroxy-2-methylpropanamide], the “solid form change on heating” value in data set [5] is recorded as “rearrange into D”.
For `C[C@](O)(COc1ccc(C#N)cc1)C(=O)Nc1ccc(C#N)c(C(F)(F)F)c1` [Form D, (S)-N-(4-cyano-3-(trifluoromethyl)phenyl)-3-(4-cyanophenoxy)-2-hydroxy-2-methylpropanamide], the “solid form stability on storage” value in data set [6] is on record as “stable”; in data set [6] (listed as Polymorph D) it was “remains stable”. Further, the “transformation in toluene suspension” value in data set [7] (sonication of the suspension for 10 minutes) is reported as “partial transformation to the toluene solvate”; in data set [7] (suspension (50 mg/mL) in toluene for 4 days, both at ambient temperature and 50° C.), “no noticeable transformation from form D to the toluene solvate”.
`C[C@](O)(COc1ccc(C#N)cc1)C(=O)Nc1ccc(C#N)c(C(F)(F)F)c1` [Form S-1, (S)-N-(4-cyano-3-(trifluoromethyl)phenyl)-3-(4-cyanophenoxy)-2-hydroxy-2-methylpropanamide]: the solubility in data set [7] (toluene, organic solvent or mixture) is less than 2000 µg/mL.
In the case of `C[C@](O)(COc1ccc(C#N)cc1)C(=O)Nc1ccc(C#N)c(C(F)(F)F)c1` [Form S-1-P1, (S)-N-(4-cyano-3-(trifluoromethyl)phenyl)-3-(4-cyanophenoxy)-2-hydroxy-2-methylpropanamide], in data set [2], the “maximum water content at 93% r.h.” value was 1.5% and the “water content at 50% r.h.” value is reported as “water content at 50% r.h.: 0.4%”.
Turning to `C[C@](O)(COc1ccc(C#N)cc1)C(=O)Nc1ccc(C#N)c(C(F)(F)F)c1` [Form S-1-P2, (S)-N-(4-cyano-3-(trifluoromethyl)phenyl)-3-(4-cyanophenoxy)-2-hydroxy-2-methylpropanamide], in data set [2], the “maximum water content at 95% r.h.” value was determined as 0.6% and the “water content at 50% r.h.” value is listed as “water content at 50% r.h.: 0.3%”.
Consider `C[C@](O)(COc1ccc(C#N)cc1)C(=O)Nc1ccc(C#N)c(C(F)(F)F)c1` [Form S-1-P4, (S)-N-(4-cyano-3-(trifluoromethyl)phenyl)-3-(4-cyanophenoxy)-2-hydroxy-2-methylpropanamide], for which, in data set [2], the “maximum water content at 94% r.h.” value was “r.h.: ~2.4%” and the “water content at 50% r.h.” value was “water content at 50% r.h.: ~0.8%”.

These data come from patent US20240326697A1, “SOLID FORMS OF SELECTIVE ANDROGEN RECEPTOR MODULATORS” (priority 2007, published 2024).
